# Laboratory results taken from paper PMC11207571, “Applicability of MDR1 Overexpressing Abcb1KO-MDCKII Cell Lines for Investigating In Vitro Species Differences and Brain Penetration Prediction” (Pharmaceutics, 2024).
# Target: T1, rat Mdr1a (Rattus norvegicus, UniProt Q6PSM0)
# Test: Inhibition of 3H-digoxin or 3H-quinidine bidirectional transport in rMDR1 cells
# Format: cell-based
# Set-up: rat Mdr1a (NM_133401.1); expressed in transfected cells; host or cells: Abcb1KO-MDCKII (canine kidney, endogenous Abcb1 knocked out), transduced, single-cell clone
# Conditions: Inhibition of digoxin transport IC50±SD, rMDR1, probe 3H-digoxin 1 µM, 120 min; IC50 from ER
# T1 sequence (Q6PSM0 1-1272): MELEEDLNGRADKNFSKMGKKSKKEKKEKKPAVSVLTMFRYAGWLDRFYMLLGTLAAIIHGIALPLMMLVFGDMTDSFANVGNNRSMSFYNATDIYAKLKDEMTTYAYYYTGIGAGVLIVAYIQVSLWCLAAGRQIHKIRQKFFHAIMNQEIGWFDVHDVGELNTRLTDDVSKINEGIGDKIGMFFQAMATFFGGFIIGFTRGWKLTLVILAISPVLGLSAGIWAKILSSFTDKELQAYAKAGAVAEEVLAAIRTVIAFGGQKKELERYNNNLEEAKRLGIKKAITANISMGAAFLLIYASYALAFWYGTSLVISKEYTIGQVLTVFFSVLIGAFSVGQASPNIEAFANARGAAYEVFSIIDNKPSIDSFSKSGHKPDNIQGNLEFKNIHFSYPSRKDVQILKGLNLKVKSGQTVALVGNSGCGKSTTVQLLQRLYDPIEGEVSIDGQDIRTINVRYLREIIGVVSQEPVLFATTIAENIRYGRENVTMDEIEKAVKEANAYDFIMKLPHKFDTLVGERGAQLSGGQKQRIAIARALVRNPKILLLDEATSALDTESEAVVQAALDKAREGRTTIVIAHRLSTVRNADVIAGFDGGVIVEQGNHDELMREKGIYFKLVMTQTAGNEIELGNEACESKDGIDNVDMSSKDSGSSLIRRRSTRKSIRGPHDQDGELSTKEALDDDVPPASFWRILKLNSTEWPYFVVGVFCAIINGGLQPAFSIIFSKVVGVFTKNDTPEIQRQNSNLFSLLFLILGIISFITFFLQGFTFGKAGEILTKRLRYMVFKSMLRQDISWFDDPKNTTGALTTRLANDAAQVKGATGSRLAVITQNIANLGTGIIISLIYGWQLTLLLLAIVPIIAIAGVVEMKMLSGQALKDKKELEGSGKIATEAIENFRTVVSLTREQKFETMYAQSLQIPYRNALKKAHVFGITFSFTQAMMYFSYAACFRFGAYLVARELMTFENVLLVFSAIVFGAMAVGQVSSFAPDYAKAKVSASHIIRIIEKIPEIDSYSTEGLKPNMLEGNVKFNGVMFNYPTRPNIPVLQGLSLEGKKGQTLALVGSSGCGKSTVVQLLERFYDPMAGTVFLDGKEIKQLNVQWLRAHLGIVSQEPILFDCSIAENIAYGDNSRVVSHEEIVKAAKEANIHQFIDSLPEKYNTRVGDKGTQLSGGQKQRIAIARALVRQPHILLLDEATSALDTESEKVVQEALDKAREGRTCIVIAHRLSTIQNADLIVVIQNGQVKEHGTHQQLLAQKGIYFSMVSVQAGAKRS
row,SMILES,IC50 [µM]
1,Cc1ccc(-c2ncc(Cl)cc2-c2ccc(S(C)(=O)=O)cc2)cn1 [Etoricoxib],54.6 ± 3.16
2,CN(C)C(=O)C(CCN1CCC(O)(c2ccc(Cl)cc2)CC1)(c1ccccc1)c1ccccc1 [Loperamide],11.1 ± 4.28

# Same assay, conditions: Inhibition of quinidine transport IC50±SD, rMDR1, probe 3H-quinidine 1 µM, 30 min; IC50 from ER
row,SMILES,IC50 [µM]
1,Cc1ccc(-c2ncc(Cl)cc2-c2ccc(S(C)(=O)=O)cc2)cn1 [Etoricoxib],18.8 ± 1.22
2,CN(C)C(=O)C(CCN1CCC(O)(c2ccc(Cl)cc2)CC1)(c1ccccc1)c1ccccc1 [Loperamide],1.01 ± 0.49

# Target: T2, mouse Mdr1a (Mus musculus, UniProt P21447)
# Test: Bidirectional transport assay, efflux ratio in Abcb1KO-MDCKII mMDR1 cells
# Conditions: mouse, pH 7.4
# In short: (§1)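 Samples, combined into pools of three to four analytes, are injected onto HPLC with formic acid (0.1%)-modified aqueous and acetonitrile eluents. They are then quantified by tandem MS in SRM mode.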
# T2 sequence (P21447 whole entry): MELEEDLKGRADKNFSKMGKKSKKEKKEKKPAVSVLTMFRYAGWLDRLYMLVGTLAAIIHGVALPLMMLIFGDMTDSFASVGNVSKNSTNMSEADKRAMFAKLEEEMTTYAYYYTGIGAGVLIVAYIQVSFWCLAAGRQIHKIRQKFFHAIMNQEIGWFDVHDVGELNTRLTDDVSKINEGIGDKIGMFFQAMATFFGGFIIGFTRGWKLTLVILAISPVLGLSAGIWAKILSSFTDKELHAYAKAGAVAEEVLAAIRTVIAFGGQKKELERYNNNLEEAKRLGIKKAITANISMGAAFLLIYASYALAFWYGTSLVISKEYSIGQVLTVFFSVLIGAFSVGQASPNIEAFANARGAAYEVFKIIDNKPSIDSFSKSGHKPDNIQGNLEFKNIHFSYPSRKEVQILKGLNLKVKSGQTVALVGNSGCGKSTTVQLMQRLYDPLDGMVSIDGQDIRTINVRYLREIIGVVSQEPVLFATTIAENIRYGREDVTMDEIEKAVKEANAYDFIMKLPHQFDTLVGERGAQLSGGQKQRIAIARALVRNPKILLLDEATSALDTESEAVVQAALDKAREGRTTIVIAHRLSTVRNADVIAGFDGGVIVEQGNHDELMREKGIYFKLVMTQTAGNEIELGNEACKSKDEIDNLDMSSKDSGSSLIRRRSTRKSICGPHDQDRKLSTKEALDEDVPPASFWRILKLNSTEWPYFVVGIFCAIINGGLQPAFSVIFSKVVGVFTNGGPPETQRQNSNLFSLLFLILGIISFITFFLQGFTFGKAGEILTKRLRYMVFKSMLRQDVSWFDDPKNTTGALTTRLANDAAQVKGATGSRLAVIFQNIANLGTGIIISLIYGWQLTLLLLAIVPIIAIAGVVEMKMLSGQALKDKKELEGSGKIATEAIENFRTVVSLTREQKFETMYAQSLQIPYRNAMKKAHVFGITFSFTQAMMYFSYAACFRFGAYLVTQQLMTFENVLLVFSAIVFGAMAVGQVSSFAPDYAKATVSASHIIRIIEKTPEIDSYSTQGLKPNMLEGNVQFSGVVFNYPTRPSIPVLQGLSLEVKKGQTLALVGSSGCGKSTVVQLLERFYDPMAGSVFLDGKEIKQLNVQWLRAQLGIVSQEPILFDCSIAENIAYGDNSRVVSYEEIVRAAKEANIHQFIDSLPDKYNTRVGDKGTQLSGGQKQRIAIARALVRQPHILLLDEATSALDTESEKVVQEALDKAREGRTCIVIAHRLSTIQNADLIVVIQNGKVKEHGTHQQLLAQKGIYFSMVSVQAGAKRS
row,SMILES,"efflux ratio at 120 min, 1 µM"
1,CCN(CC)C(=O)/C(C#N)=C/c1cc(O)c(O)c([N+](=O)[O-])c1 [Entacapone],0.34 ± 0.05
2,Cc1ccc(-c2ncc(Cl)cc2-c2ccc(S(C)(=O)=O)cc2)cn1 [Etoricoxib],1.72 ± 0.23
3,N=C(N)N/N=C/c1c(Cl)cccc1Cl [Guanabenz],1.08 ± 0.09
4,COc1ccc2c(c1)c(CC(=O)O)c(C)n2C(=O)c1ccc(Cl)cc1 [Indomethacin],0.39 ± 0.02
5,CN(C)C(=O)C(CCN1CCC(O)(c2ccc(Cl)cc2)CC1)(c1ccccc1)c1ccccc1 [Loperamide],16 ± 2.75

# Tested on: hMDR1 and hBCRP
# Test: Brain permeability classification from total ER of hMDR1 and hBCRP against in vivo rodent Kp,uu,brain
# Conditions: total ER cut-off 3; in vivo rodent Kp,uu,brain cut-off 0.3
# Method: MDR1 and/or BCRP substrate properties were investigated by binary classification analysis on CNS+ and CNS− compounds. […] True negative (TN), where there was no efflux and the CNS+ compound crossed the BBB. […] The sensitivity and specificity of the estimation of brain penetration along with MDR1 and BCRP activity were calculated from predictive performance metrics.
# First, NET ER was calculated and used for human predictions, (2) NET ER=ER(−inh)[…]ER(+inh) where ER(−inh) is ER in the absence of inhibitor, and ER(+inh) is ER in the presence of inhibitor, for hMDR1 (ERMDR1) or hBCRP (ERBCRP).
# To identify the correlation between the in vivo rodent Kp,uu,brain and ERs, 58 compounds with known Kp,uu,brain were selected. An ER of 2 was used as a cut-off to classify MDR1 substrates and a Kp,uu,brain of 0.3 was used as a threshold for CNS penetrant compounds. The resulting graphs are thus divided into four quadrants. Brain penetration (Kp,uu,brain) was used as the logical value true condition, with compounds having Kp,uu,brain ≤ 0.3 considered positive. Q2 and Q3 comprise molecules with impaired brain penetration. […] Molecules in Q4 (true negatives, TN) can freely access the brain (Figure 2). Predictive performance metrics were calculated to show the efficacy of the established cell lines in BBB permeability classification (Table 1). Sensitivity refers to the ability of the model to correctly classify CNS-restricted molecules based on MDR1 substrate nature.
# Subsequently, for a more reliable prediction of brain penetration, data generated in the hBCRP cell line were included in the analysis. hBCRP assay conditions and evaluations were identical to that of MDR1 cell lines, which allowed proper comparisons (Figure 2E,F). Total ER was calculated by combining ERs determined in BCRP and hMDR1 cell lines based on Equation (3), with an ER cut-off of 3. […] Eventually, total ERs were also assessed with the Relative Expression Factor (REF) (Equation (4); Figure 2E,F). REF is an in vitro and in vivo correlation scaler, calculated from transporter protein abundances in brain microvessels versus overexpressing cell lines.
row,SMILES,CNS penetration classification based on total ER (hMDR1 + hBCRP)
1,CCN(CC)C(=O)/C(C#N)=C/c1cc(O)c(O)c([N+](=O)[O-])c1 [Entacapone],true positives
2,Cc1ccc(-c2ncc(Cl)cc2-c2ccc(S(C)(=O)=O)cc2)cn1 [Etoricoxib],false positives
3,N=C(N)N/N=C/c1c(Cl)cccc1Cl [Guanabenz],false positives
4,COc1ccc2c(c1)c(CC(=O)O)c(C)n2C(=O)c1ccc(Cl)cc1 [Indomethacin],true positives

# Target: T3, cynomolgus monkey Mdr1 (Macaca fascicularis, UniProt Q8HZQ6)
# Test: Inhibition of 3H-digoxin or 3H-quinidine bidirectional transport in cyMDR1 cells
# Conditions: Inhibition of quinidine transport IC50±SD, cyMDR1, probe 3H-quinidine 0.1 µM, 60 min; IC50 from ER
# T3 sequence (Q8HZQ6 1-1283): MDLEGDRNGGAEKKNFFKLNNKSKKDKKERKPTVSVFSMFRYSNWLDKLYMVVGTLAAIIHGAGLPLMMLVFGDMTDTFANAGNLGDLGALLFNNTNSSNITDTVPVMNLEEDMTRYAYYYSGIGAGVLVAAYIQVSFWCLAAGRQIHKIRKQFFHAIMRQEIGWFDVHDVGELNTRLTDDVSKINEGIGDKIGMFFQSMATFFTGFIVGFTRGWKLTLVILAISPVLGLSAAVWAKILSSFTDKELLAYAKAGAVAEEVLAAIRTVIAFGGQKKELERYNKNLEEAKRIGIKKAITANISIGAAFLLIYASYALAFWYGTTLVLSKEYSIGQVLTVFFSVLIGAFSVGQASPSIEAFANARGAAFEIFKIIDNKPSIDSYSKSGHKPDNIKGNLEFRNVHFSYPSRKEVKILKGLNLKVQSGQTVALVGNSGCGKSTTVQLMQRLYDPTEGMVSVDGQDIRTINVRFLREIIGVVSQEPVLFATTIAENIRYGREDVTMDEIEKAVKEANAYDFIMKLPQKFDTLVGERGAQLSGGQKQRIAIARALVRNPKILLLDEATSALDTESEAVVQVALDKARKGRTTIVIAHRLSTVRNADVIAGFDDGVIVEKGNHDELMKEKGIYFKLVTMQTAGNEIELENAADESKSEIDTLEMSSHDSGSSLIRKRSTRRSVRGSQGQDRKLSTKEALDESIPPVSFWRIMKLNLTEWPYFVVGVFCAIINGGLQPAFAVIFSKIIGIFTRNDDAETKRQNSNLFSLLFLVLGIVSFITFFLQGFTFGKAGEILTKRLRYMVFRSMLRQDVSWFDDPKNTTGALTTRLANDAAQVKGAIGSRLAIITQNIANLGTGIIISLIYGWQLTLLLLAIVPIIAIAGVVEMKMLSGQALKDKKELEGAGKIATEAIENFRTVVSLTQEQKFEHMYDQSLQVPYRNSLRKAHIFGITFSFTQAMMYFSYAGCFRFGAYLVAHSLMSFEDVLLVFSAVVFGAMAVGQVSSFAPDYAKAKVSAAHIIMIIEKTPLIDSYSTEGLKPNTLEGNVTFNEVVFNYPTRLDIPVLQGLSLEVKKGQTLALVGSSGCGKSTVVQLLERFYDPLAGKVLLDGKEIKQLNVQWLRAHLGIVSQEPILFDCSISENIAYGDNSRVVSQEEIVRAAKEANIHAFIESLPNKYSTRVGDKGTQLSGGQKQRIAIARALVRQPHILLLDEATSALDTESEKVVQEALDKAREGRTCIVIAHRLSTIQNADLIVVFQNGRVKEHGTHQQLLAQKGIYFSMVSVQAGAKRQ
row,SMILES,IC50 [µM]
1,Cc1ccc(-c2ncc(Cl)cc2-c2ccc(S(C)(=O)=O)cc2)cn1 [Etoricoxib],25.9 ± 10.5
2,CN(C)C(=O)C(CCN1CCC(O)(c2ccc(Cl)cc2)CC1)(c1ccccc1)c1ccccc1 [Loperamide],1.36 ± 0.34

# Target: T2, mouse Mdr1a
# Test: Inhibition of 3H-digoxin or 3H-quinidine bidirectional transport in mMDR1 cells
# Format: cell-based
# Set-up: mouse Mdr1a (NM_011076.3); expressed in transfected cells; host or cells: Abcb1KO-MDCKII (canine kidney, endogenous Abcb1 knocked out), transduced, single-cell clone
# Conditions: Inhibition of digoxin transport IC50±SD, mMDR1, probe 3H-digoxin 1 µM, 120 min; IC50 from ER
row,SMILES,IC50 [µM]
1,Cc1ccc(-c2ncc(Cl)cc2-c2ccc(S(C)(=O)=O)cc2)cn1 [Etoricoxib],57.8 ± 29.8
2,CN(C)C(=O)C(CCN1CCC(O)(c2ccc(Cl)cc2)CC1)(c1ccccc1)c1ccccc1 [Loperamide],6.5 ± 1.1

# Same assay, conditions: Inhibition of quinidine transport IC50±SD, mMDR1, probe 3H-quinidine 1 µM, 60 min; IC50 from ER
row,SMILES,IC50 [µM]
1,Cc1ccc(-c2ncc(Cl)cc2-c2ccc(S(C)(=O)=O)cc2)cn1 [Etoricoxib],22.2 ± 5.43
2,CN(C)C(=O)C(CCN1CCC(O)(c2ccc(Cl)cc2)CC1)(c1ccccc1)c1ccccc1 [Loperamide],0.96 ± 0.33

# Target: T4, human MDR1 (Homo sapiens, UniProt P08183)
# Test: Bidirectional transport assay, efflux ratio in Abcb1KO-MDCKII hMDR1 cells
# Conditions: ER cut-off 2; in vivo rodent Kp,uu,brain cut-off 0.3
# In short: as §1
# T4 sequence (P08183 whole entry): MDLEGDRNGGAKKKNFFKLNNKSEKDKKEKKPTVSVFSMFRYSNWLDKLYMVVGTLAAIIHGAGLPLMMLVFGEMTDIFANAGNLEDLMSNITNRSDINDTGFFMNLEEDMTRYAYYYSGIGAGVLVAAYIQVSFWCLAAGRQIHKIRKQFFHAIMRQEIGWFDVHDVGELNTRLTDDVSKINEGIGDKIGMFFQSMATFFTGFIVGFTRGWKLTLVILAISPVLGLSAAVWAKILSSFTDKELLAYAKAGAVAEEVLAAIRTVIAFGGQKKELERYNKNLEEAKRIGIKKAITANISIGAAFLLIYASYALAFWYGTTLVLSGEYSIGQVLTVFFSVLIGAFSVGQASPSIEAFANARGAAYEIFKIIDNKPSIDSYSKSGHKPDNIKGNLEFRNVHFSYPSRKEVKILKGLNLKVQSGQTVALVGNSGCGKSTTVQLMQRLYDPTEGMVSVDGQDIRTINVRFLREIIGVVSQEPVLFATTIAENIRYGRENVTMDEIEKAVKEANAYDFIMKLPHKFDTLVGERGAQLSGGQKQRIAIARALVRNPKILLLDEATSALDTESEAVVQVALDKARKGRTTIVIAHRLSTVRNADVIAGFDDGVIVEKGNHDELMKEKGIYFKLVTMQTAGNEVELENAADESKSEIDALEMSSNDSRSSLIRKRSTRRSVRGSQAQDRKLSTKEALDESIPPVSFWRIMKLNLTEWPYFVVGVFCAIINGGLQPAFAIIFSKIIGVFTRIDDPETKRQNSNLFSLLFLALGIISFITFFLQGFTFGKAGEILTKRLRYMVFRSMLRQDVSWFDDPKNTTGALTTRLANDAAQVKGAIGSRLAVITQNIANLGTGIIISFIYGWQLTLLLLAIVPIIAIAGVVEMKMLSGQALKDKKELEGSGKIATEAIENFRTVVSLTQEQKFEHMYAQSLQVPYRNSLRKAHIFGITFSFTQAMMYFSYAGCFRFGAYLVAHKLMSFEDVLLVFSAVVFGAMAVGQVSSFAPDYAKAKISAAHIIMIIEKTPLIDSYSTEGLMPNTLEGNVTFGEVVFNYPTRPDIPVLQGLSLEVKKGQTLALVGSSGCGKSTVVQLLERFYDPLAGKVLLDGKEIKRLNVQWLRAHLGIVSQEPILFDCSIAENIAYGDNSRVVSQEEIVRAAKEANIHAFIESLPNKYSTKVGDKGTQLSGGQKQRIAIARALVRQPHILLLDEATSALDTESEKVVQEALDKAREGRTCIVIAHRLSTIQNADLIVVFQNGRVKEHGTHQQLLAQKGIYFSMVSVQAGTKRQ
row,SMILES,CNS penetration classification based on hMDR1 ER alone
1,CCN(CC)C(=O)/C(C#N)=C/c1cc(O)c(O)c([N+](=O)[O-])c1 [Entacapone],false negatives
2,COc1ccc2c(c1)c(CC(=O)O)c(C)n2C(=O)c1ccc(Cl)cc1 [Indomethacin],false negatives

# Same assay, conditions: human, MDCK-MDR1, pH 7.4
row,SMILES,"efflux ratio at 120 min, 1 µM"
1,CCN(CC)C(=O)/C(C#N)=C/c1cc(O)c(O)c([N+](=O)[O-])c1 [Entacapone],0.28 ± 0.02
2,Cc1ccc(-c2ncc(Cl)cc2-c2ccc(S(C)(=O)=O)cc2)cn1 [Etoricoxib],1.97 ± 0.21
3,N=C(N)N/N=C/c1c(Cl)cccc1Cl [Guanabenz],0.82 ± 0.1
4,COc1ccc2c(c1)c(CC(=O)O)c(C)n2C(=O)c1ccc(Cl)cc1 [Indomethacin],0.42 ± 0.05
5,CN(C)C(=O)C(CCN1CCC(O)(c2ccc(Cl)cc2)CC1)(c1ccccc1)c1ccccc1 [Loperamide],48.7 ± 3.51

# Target: T4, human MDR1
# Test: Inhibition of 3H-digoxin or 3H-quinidine bidirectional transport in hMDR1 cells
# Conditions: Inhibition of digoxin transport IC50±SD, hMDR1, probe 3H-digoxin 1 µM, 120 min; IC50 from ER
row,SMILES,IC50 [µM]
1,Cc1ccc(-c2ncc(Cl)cc2-c2ccc(S(C)(=O)=O)cc2)cn1 [Etoricoxib],> 100
2,CN(C)C(=O)C(CCN1CCC(O)(c2ccc(Cl)cc2)CC1)(c1ccccc1)c1ccccc1 [Loperamide],38.3 ± 4.59

# Same assay, conditions: Inhibition of quinidine transport IC50±SD, hMDR1, probe 3H-quinidine 1 µM, 60 min; IC50 from ER
row,SMILES,IC50 [µM]
1,Cc1ccc(-c2ncc(Cl)cc2-c2ccc(S(C)(=O)=O)cc2)cn1 [Etoricoxib],> 100
2,CN(C)C(=O)C(CCN1CCC(O)(c2ccc(Cl)cc2)CC1)(c1ccccc1)c1ccccc1 [Loperamide],4.75 ± 0.32

# Target: T3, cynomolgus monkey Mdr1
# Test: Bidirectional transport assay, efflux ratio in Abcb1KO-MDCKII cyMDR1 cells
# Conditions: cynomolgus monkey, pH 7.4
# In short: as §1
row,SMILES,"efflux ratio at 120 min, 1 µM"
1,CCN(CC)C(=O)/C(C#N)=C/c1cc(O)c(O)c([N+](=O)[O-])c1 [Entacapone],0.46 ± 0.07
2,Cc1ccc(-c2ncc(Cl)cc2-c2ccc(S(C)(=O)=O)cc2)cn1 [Etoricoxib],1.24 ± 0.21
3,N=C(N)N/N=C/c1c(Cl)cccc1Cl [Guanabenz],0.84 ± 0.1
4,COc1ccc2c(c1)c(CC(=O)O)c(C)n2C(=O)c1ccc(Cl)cc1 [Indomethacin],0.4 ± 0.03
5,CN(C)C(=O)C(CCN1CCC(O)(c2ccc(Cl)cc2)CC1)(c1ccccc1)c1ccccc1 [Loperamide],6.38 ± 0.55

# Tested on: not listed separately
# Test: Bidirectional transport assay, efflux ratio in Abcb1KO-MDCKII-Mock control cells
# Conditions: dog, MDCK, pH 7.4
# Method: Eluent A consisted of 0.1% formic acid in water, eluent B consisted of 0.1% formic acid in acetonitrile. Then, 10 µL samples were injected into the HPLC-MS/MS system. Mass spectrometric detection was performed in SRM mode, and ion transitions for each analyte were optimized during method development. Samples were analyzed in pools, with each pool containing three to four analytes.
row,SMILES,"efflux ratio at 120 min, 1 µM"
1,CCN(CC)C(=O)/C(C#N)=C/c1cc(O)c(O)c([N+](=O)[O-])c1 [Entacapone],0.32 ± 0.02
2,Cc1ccc(-c2ncc(Cl)cc2-c2ccc(S(C)(=O)=O)cc2)cn1 [Etoricoxib],0.9 ± 0.09
3,N=C(N)N/N=C/c1c(Cl)cccc1Cl [Guanabenz],0.93 ± 0.15
4,COc1ccc2c(c1)c(CC(=O)O)c(C)n2C(=O)c1ccc(Cl)cc1 [Indomethacin],0.37 ± 0.07
5,CN(C)C(=O)C(CCN1CCC(O)(c2ccc(Cl)cc2)CC1)(c1ccccc1)c1ccccc1 [Loperamide],0.49 ± 0.03

# Target: T3, cynomolgus monkey Mdr1
# Test: cell-based
# Conditions: not given
row,SMILES,IC50 [µM]
1,Cc1ccc(-c2ncc(Cl)cc2-c2ccc(S(C)(=O)=O)cc2)cn1 [Etoricoxib],15.5 ± 11.7
2,CN(C)C(=O)C(CCN1CCC(O)(c2ccc(Cl)cc2)CC1)(c1ccccc1)c1ccccc1 [Loperamide],6.3 ± 2.27

# Target: T1, rat Mdr1a
# Test: Bidirectional transport assay, efflux ratio in Abcb1KO-MDCKII rMDR1 cells
# Conditions: rat, pH 7.4
# In short: as §1
row,SMILES,"efflux ratio at 120 min, 1 µM"
1,CCN(CC)C(=O)/C(C#N)=C/c1cc(O)c(O)c([N+](=O)[O-])c1 [Entacapone],0.39 ± 0.03
2,Cc1ccc(-c2ncc(Cl)cc2-c2ccc(S(C)(=O)=O)cc2)cn1 [Etoricoxib],2.01 ± 0.21
3,N=C(N)N/N=C/c1c(Cl)cccc1Cl [Guanabenz],0.85 ± 0.13
4,COc1ccc2c(c1)c(CC(=O)O)c(C)n2C(=O)c1ccc(Cl)cc1 [Indomethacin],0.4 ± 0.01
5,CN(C)C(=O)C(CCN1CCC(O)(c2ccc(Cl)cc2)CC1)(c1ccccc1)c1ccccc1 [Loperamide],10.5 ± 2.34

# Target: T5, human BCRP (Homo sapiens, UniProt Q9UNQ0)
# T5 sequence (Q9UNQ0 1-655): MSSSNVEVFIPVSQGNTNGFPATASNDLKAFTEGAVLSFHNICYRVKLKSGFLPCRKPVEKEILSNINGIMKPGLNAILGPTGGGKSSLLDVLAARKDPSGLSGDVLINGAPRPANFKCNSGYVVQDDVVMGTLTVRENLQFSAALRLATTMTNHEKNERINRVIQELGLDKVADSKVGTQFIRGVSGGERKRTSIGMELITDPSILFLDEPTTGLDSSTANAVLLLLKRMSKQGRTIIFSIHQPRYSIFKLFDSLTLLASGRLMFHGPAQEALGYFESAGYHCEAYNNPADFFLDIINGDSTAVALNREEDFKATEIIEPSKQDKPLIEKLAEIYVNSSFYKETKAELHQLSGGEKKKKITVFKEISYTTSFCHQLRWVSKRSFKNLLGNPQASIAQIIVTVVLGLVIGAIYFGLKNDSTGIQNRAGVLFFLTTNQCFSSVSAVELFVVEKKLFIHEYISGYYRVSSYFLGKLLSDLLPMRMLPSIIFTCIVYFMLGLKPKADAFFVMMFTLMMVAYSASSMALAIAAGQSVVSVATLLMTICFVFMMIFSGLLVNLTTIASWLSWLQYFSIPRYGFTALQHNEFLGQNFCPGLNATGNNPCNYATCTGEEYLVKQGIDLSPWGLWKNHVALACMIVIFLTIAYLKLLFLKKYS
# Test: Bidirectional transport assay, efflux ratio in MDCKII-BCRP cells
# Conditions: human, pH 7.4
# In short: as §1
row,SMILES,"efflux ratio at 120 min, 1 µM"
1,CCN(CC)C(=O)/C(C#N)=C/c1cc(O)c(O)c([N+](=O)[O-])c1 [Entacapone],49.4 ± 3.92
2,Cc1ccc(-c2ncc(Cl)cc2-c2ccc(S(C)(=O)=O)cc2)cn1 [Etoricoxib],2.35 ± 0.25
3,N=C(N)N/N=C/c1c(Cl)cccc1Cl [Guanabenz],3.35 ± 1.17
4,COc1ccc2c(c1)c(CC(=O)O)c(C)n2C(=O)c1ccc(Cl)cc1 [Indomethacin],10.2 ± 0.71
5,CN(C)C(=O)C(CCN1CCC(O)(c2ccc(Cl)cc2)CC1)(c1ccccc1)c1ccccc1 [Loperamide],2 ± 0.23
